Among the data in article PMC11946258, “Self-Assembly, Antimicrobial Properties and Biodegradability of Ester-Functionalized Choline-Based Surface-Active Ionic Liquids” (Molecules, 2025) are CMC, HC50 and MIC values, retold here.

Values joined by “and” are separate entries in the source; they are usually repeats but may differ in a detail not shown here. Identical values can stand only once. Where only a bound is given, the exact number is not on record here.

A short description of data set [1]: Critical micelle concentration by conductivity. It is filed as physicochemical. To be noted: aqueous solution, 25 °C. An excerpt:
The change in specific conductivity of ester-functionalized choline-based ILs as a function of their concentration was investigated. […] Conductometric plots of the other homologues are presented in the Supplemetary Materials (Figures S10 and S11).
In the pre- and postmicellization zones, the specific conductivity values are represented by two straight lines with different slopes. As a consequence of the micelle’s reduced mobility in comparison to the monomers and the binding of certain counterions to it, a pronounced change in slope is observed. The critical micelle concentration (CMC) value was calculated from the point of inflection in the curve. […] In accordance with the empirical Stauff–Klevens Equation (1), a linear relationship is observed between log CMC and alkyl chain length:log cmc = A − B × n(1)
Conductivity measurements were carried out at 25 °C using an Orion conductivity cell 913005MD with an epoxy/graphite electrode and a Thermo Orion 5 Star multiparameter instrument with a cell constant of 0.475 cm^−1.

For data set [2], the system named is erythrocytes from rabbit blood. The data set can be described thus: Hemolytic activity. It is filed as cell-based. To be noted: concentration inducing 50% hemolysis, PBS pH 7.4, 10 min. As for the experimental part:
To perform an initial assessment of cell toxicity, hemolysis has been employed. The hemolytic activity of ester-functionalized choline-based ILs was determined by mesuring the release of haemoglobin in erythrocytes from rabbit blood samples in the presence of these compounds. The HC50 values, representing the concentracion inducing 50% hemolysis, were calculated from the plots of the percentages of hemolysis versus CnECholBr concentration (Figure 7). The HC50 values are compiled in Table 4.
Rabbit blood samples, used to prepare the erythrocyte suspension, were obtained from the animal facility of the Research and Development Center (CID) of the Spanish National Research Council (CID-CSIC) in Barcelona, Spain. The collection of fresh blood from rabbits adhered strictly to the bioethical guidelines stipulated by Spanish legislation, ensuring ethical treatment of the animals and compliance with research protocols. Heparinized blood samples were centrifuged for 10 min at 3000 rpm. The supernatant containing the white cells was discarded, while the erythrocytes were washed three times in PBS (pH 7.4). Erythrocytes were then suspended in PBS at a cell density of 8 × 10^9 cells/mL. A series of different volumes of a concentrated IL solution (10 to 80 μL) were placed in Eppendorf tubes containing 25 μL of erythrocyte suspension and PBS was added to each tube to a total volume of 1 mL [33]. Samples were shaken for 10 min at rt and the tubes were centrifuged (5 min at 10,000 rpm). The percentage of hemolysis was calculated by comparing the absorbance (540 nm) of the supernatant of the samples containing surfactants with that of the hemolyzed control with distilled water. The HC50 (concentration of surfactant that causes 50% hemolysis) was determined from the concentration-response curves.

The subject of the next data set is Candida albicans. Nature of the data set: Antifungal MIC broth microdilution. It is filed as cell-based. As to conditions: ATCC90028; Candida albicans ATCC 90028, RPMI 1640, 24 h, 30 °C. As for the experimental part: (§1) The antimicrobial activity of cholinium-based ILs with an ester group in the alkyl chain was evaluated against a range of representative bacteria and fungi.
(§2) The antifungal activity was evaluated against the following yeasts: Candida albicans ATCC 90028, Candida tropicalis ATCC 7349, Candida parapsilosis ATCC 22019, Candida glabrata ATCC 66032. Frozen yeast stocks were inoculated into Sabourauds’s agar (SBA) and culture plates and incubated at 35 °C for 24 h. Three to four colonies of each strain were dispersed in sterile medium, Roswell Park Memorial Institute medium (RPMI 1640 medium), to obtain dispersions with a turbidity equivalent to 0.5 on the MacFarland scale (McFarland DEN-1B Grant-bio model densitometer). Minimum fungicidal concentrations (MFC) values—the lowest concentration of an antimicrobial agent that prevents the establishment of visible microbial growth after 24 h at 30 °C—were used to determine in vitro antifungal activity. MFCs were determined using a broth microdilution assay. Serial dilutions of each IL, ranging from 512 to 2 µg/mL, were dissolved in RPMI 1640 medium and dispensed (100 µL) into the appropriate wells of a 96-well polystyrene microtiter plate. The nutrient broth starter culture of each yeast strain (100 μL) was added to achieve a final inoculum of approximately 7.5 × 10^5 CFU per mL for yeast. Nutrient broth medium without the compound was used as a growth control. The development of turbidity in an inoculated medium is a function of growth and reflects an increase in both mass and cell number. To confirm this observation, 20 μL of resazurin at 0.015% w/v was added to each well and allowed to react for approximately 2 h at 30 °C. After the incubation period, the indicator of microbial growth, i.e., a change from blue to pink, confirmed the MIC value.
A general note: Dilution methods test growth across graded concentrations, often in twofold steps.

The test system of a further data set is Candida glabrata. Nature of the data set: Antifungal MIC broth microdilution. To be noted: Nakaseomyces glabratus, ATCC66032; Candida glabrata ATCC 66032, RPMI 1640, 24 h, 30 °C. It is filed as cell-based. As for the experimental part:
as §1, §2

Another data set relates to Candida parasilopsis. The data set can be described thus: Antifungal MIC broth microdilution. The class given is cell-based. As to conditions: Candida parapsilosis ATCC 22019, RPMI 1640, 24 h, 30 °C. As for the experimental part: as §1, §2
The test system of another data set is Candida tropicalis. Nature of the data set: Antifungal MIC broth microdilution. It is filed as cell-based. To be noted: ATCC7349; Candida tropicalis ATCC 7349, RPMI 1640, 24 h, 30 °C. As for the experimental part: as §1, §2
A short description of data set [3]: Critical micelle concentration by pyrene fluorescence. To be noted: fluorescence (pyrene I1/I3), aqueous solution, 25 °C. It is filed as physicochemical. As for the experimental part: The aggregation behavior of ester-functionalized choline-based ILs was investigated through fluorescence measurements using pyrene as a solvatochromic probe. By monitoring the polarity of pyrene’s microenvironment at varying IL concentrations, the intensity ratio of pyrene’s first (I1) and third (I3) vibronic peaks was analyzed (Figure 3). A sharp decline in the I1/I3 ratio indicated the formation of IL aggregates. The critical micelle concentration (CMC) was determined as the midpoint of the transition, with the data fitting well to sigmoidal Boltzmann-type curves.
A Shimadzu RF 540 spectrofluorometer equipped with cell holder thermostatical controlled at 25 °C was used to detect steady-state fluorescence. The fluorescent probe, pyrene, was used at a concentration of 1 × 10^−6 M. After irradiation at 332 nm, the fluorescence emission spectra of pyrene dissolved in aqueous CnECholBr solutions were recorded from 340 to 450 nm.

On to `CCCCCCCCCCCCCCOC(=O)C[N+](C)(C)CCO.[Br-]` [C14ECholBr, N-(2-hydroxyethyl)-N,N-dimethyl-2-oxo-2-(tetradecyloxy)ethan-1-aminium bromide], for which the CMC in data set [1] is 0.7 ± 0.1 mM; in data set [3], 1.3 ± 0.1 mM. Besides, the HC50 (commonly the concentration giving 50% haemolysis) in data set [2] is 56 µM and 56 ± 1 µM. Besides, the minimal inhibitory concentration (MIC) in the data set on Candida albicans, against Candida glabrata, with Candida parasilopsis and against Candida tropicalis was above 256 µg/mL each time.

For the molecule `CCCCCCCCCCOC(=O)C[N+](C)(C)CCO` [C10ECholBr], the CMC was 11.2 ± 0.8 mM in data set [1] and 9.0 ± 0.5 mM in data set [3]. The molecule also displayed an HC50 in data set [2] above 2500 µM. For the same molecule, the MIC in the data set on Candida albicans, against Candida glabrata, in the data set with Candida parasilopsis and with Candida tropicalis was above 256 µg/mL in each case.

Turning to `CCCCCCCCCCCCOC(=O)C[N+](C)(C)CCO` [C12ECholBr], the CMC worked out at 4.2 ± 0.5 mM in data set [1] and 2.9 ± 0.1 mM in data set [3]. In data set [2], this molecule displayed an HC50 of 232 ± 2 µM. The MIC (commonly the least concentration at which growth counts as inhibited) in the data set with Candida albicans is 64 µg/mL; in the data set with Candida glabrata, 32 µg/mL; in the data set with Candida parasilopsis it was above 256 µg/mL; in the data set with Candida tropicalis it was above 256 µg/mL.
